Converted amounts (≈) assume the structure as drawn. Where a name gives a salt, the structure may show the parent alone. Read-outs that look alike come from different tables or passages of the source.
Experiments:
Pseudomonas lachrymans = assay: Disease prevention effect on angular leaf spot of cucumber; format: in vivo, Pseudomonas lachrymans (on cucumber, Cucumis sativus L.); conditions: spray, 4 hours before inoculation
Procedure: Four hours after the application of the sample, a suspension of Pseudomonas lachrymans was inoculated by spraying on the plant. […] Incidence of disease was assessed in the following manner. […] |______________________________________ |______________________________________ |0 Healthy […] |3 26-50% diseased spot areas […] | [drawing 22] Five plants were used for each treatment.

Pseudomonas solanacearum = format: in vivo, Pseudomonas solanacearum (on tomato, Sekai Ichi); conditions: soil application, one day after inoculation, assessed after additional 10 days
P. lachrymans = assay: Controlling angular leaf spot of cucumber by seed treatment; conditions: grown 2 weeks
Erwinia carotovora = assay: Plant systemic activity (root immersion, Chinese cabbage); conditions: roots immersed, 10 ppm, inoculated after 2 days
E. carotovora = assay: Antibacterial activity against E. carotovora (agar dilution MIC); conditions: for MIC: Pectobacterium carotovorum, 72 h, read-out: MIC (minimum inhibitory concentration); for antibacterial activity: result in words, in vitro, Erwinia carotovora
Xanthomonas oryzae = format: in vivo, Xanthomonas oryzae (on rice plant, Kinki #33); conditions: spray, 500 ppm, 4 hours before inoculation, 7 days, bacterial-exudation method
[1] = inoculated seeds soaked 30 minutes, 500 ppm

CCn1cc(C(=O)OC)c(=O)c2cc3c(cc21)OCO3 [(2)]
Severity of Disease (Pseudomonas lachrymans; 500 ppm): 25%
Ratio of Diseased Seedling (Pseudomonas solanacearum; 500 ppm): 36%
Infected Plants (P. lachrymans; [1]): 0%
Severity of Disease (Erwinia carotovora): 0%
MIC (E. carotovora): > 50 µg/mL
antibacterial activity (E. carotovora): very weak antibacterial activity
Severity of Disease (Xanthomonas oryzae): 0%

COn1cc(C(=O)O)c(=O)c2cc3c(cc21)OCO3 [(3)]
MIC (E. carotovora): 0.39 µg/mL (≈ 1.48 µM)

O=C(O)c1cn(CC(F)(F)F)c2cc3c(cc2c1=O)OCO3 [(6)]
MIC (E. carotovora): 3.12 µg/mL (≈ 9.9 µM)

CCOC(=O)c1cn(CCF)c2cc3c(cc2c1=O)OCO3 [(8)]
Severity of Disease (Pseudomonas lachrymans; 500 ppm): 21%
Ratio of Diseased Seedling (Pseudomonas solanacearum; 500 ppm): 24%
Infected Plants (P. lachrymans; [1]): 0%
Severity of Disease (Erwinia carotovora): 0%
MIC (E. carotovora): > 50 µg/mL
antibacterial activity (E. carotovora): very weak antibacterial activity
Severity of Disease (Xanthomonas oryzae): 0%

COn1cc(C(=O)O)c(=O)c2c3sc(=O)n(C)c3ccc21 [(10)]
Severity of Disease (Erwinia carotovora): 25%
MIC (E. carotovora): 0.049 µg/mL (≈ 0.16 µM)

CCn1c(C)c(C(=O)O)c(=O)c2cc3c(cc21)OCO3 [(11)]
MIC (E. carotovora): > 50 µg/mL
antibacterial activity (E. carotovora): very weak antibacterial activity

C=Cn1cc(C(=O)O)c(=O)c2cc3c(cc21)OCO3 [(13)]
Severity of Disease (Pseudomonas lachrymans; 500 ppm): 2.4%
Ratio of Diseased Seedling (Pseudomonas solanacearum; 500 ppm): 4%
Infected Plants (P. lachrymans; [1]): 0%
Severity of Disease (Erwinia carotovora): 0%
MIC (minimum inhibitory concentration) (E. carotovora; agar culture medium, 3 days at 27° C): 0.78 µg/mL (≈ 3.01 µM)
Severity of Disease (Xanthomonas oryzae): 0%

CCn1cc(C(=O)O)c(=O)c2cc3c(cc21)OCO3 [Compound (1)]
Severity of Disease (Pseudomonas lachrymans; 500 ppm): 7.9%
Ratio of Diseased Seedling (Pseudomonas solanacearum; 500 ppm): 10%
Infected Plants (P. lachrymans; [1]): 0%
Severity of Disease (Erwinia carotovora): 0%
MIC (E. carotovora): 1.56 µg/mL (≈ 5.97 µM)
Severity of Disease (Xanthomonas oryzae): 0%

C=Cn1cc(C(=O)O)c(=O)c2cc3c(cc21)OCO3 [Compound (4)]
Severity of Disease (Pseudomonas lachrymans; 500 ppm): 4.6%
Ratio of Diseased Seedling (Pseudomonas solanacearum; 500 ppm): 6%
Infected Plants (P. lachrymans; [1]): 0%
Severity of Disease (Erwinia carotovora): 0%
MIC (E. carotovora): 0.78 µg/mL (≈ 3.01 µM)
Severity of Disease (Xanthomonas oryzae): 0%

O=C(O)c1cn(CCF)c2cc3c(cc2c1=O)OCO3 [Compound (7)]
Severity of Disease (Pseudomonas lachrymans; 500 ppm): 12%
Ratio of Diseased Seedling (Pseudomonas solanacearum; 500 ppm): 18%
Infected Plants (P. lachrymans; [1]): 0%
Severity of Disease (Erwinia carotovora): 0%
MIC (E. carotovora): 0.78 µg/mL (≈ 2.79 µM)
Severity of Disease (Xanthomonas oryzae): 0%

O=C(O)c1cn(CCCl)c2cc3c(cc2c1=O)OCO3 [Compound (9)]
Severity of Disease (Pseudomonas lachrymans; 500 ppm): 19%
Ratio of Diseased Seedling (Pseudomonas solanacearum; 500 ppm): 14%
Severity of Disease (Erwinia carotovora): 0%
MIC (E. carotovora): 1.56 µg/mL (≈ 5.28 µM)
Severity of Disease (Xanthomonas oryzae): 0%

CCn1cc(C(=O)O)c(=O)c2ccc(C)nc21 [Nalidixic acid, nalidixic acid, reference compound]
MIC (E. carotovora): 6.25 µg/mL (≈ 26.9 µM)

OCl [Sodium Hypochlorite, reference compound]
Infected Plants (P. lachrymans; inoculated seeds soaked 30 minutes, 2,000 ppm): 7.5%

[H]/N=C(/N)N[C@H]1[C@H](O)[C@@H](O)[C@H](O[C@@H]2O[C@@H](C)[C@](O)(C=O)[C@H]2O[C@@H]2O[C@@H](CO)[C@H](O)[C@@H](O)[C@@H]2NC)[C@@H](N/C(N)=N\[H])[C@@H]1O [Streptomycin Sulfate, reference compound]
Severity of Disease (Pseudomonas lachrymans; 200 ppm): 28%
Ratio of Diseased Seedling (Pseudomonas solanacearum; 200 ppm): 86%
Infected Plants (P. lachrymans; inoculated seeds soaked 30 minutes, 200 ppm): 26.5%
Severity of Disease (Erwinia carotovora): 31%
